Data reported in patent publication US10266526B2, “Substituted 1,2,3-triazoles as SMYD inhibitors for treating cancer” (EPIZYME, INC., priority 2014, dated 2019).
Where two headings read alike, the source gives them in different places.

Target: SMYD3 (Homo sapiens (Human), UniProt Q9H7B4)
Assay: SMYD3 biochemical assay (SMYD3 enzyme assay on MEKK2 protein substrate, 3H-SAM scintillation proximity assay)
Outline: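 Native full-length human SMYD3, expressed in E. coli, was preincubated with compound for 30 min at room temperature in 25 mM Tris-Cl pH 8.0, 1 mM TCEP, 0.005% BSG and 0.005% Tween 20. ³H-SAM plus GST-MEKK2 then started the reaction. It was stopped with unlabeled SAM (100 uM final), and methylated MEKK2 was read by SPA.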

[1] = read-out: SMYD3 Biochem IC50 (μM)*

Chain of SMYD3 (Q9H7B4 whole entry): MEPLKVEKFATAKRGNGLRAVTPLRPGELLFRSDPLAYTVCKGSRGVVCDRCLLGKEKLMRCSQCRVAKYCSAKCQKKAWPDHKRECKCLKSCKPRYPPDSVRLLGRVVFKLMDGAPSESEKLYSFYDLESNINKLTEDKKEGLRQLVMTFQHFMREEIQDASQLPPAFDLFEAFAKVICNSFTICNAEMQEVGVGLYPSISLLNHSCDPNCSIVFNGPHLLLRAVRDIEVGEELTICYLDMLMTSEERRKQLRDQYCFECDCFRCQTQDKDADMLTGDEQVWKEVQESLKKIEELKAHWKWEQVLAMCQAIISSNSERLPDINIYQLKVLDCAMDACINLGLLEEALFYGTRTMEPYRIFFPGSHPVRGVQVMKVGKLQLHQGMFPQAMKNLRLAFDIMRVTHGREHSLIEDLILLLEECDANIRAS

Compound | IC50 (read-out: SMYD3 Biochem IC50) | IC50 [1] | also measured
NCCC(=O)N[C@H]1CC[C@H](NC(=O)c2ccnc(N)c2)CC1 [compound 321, 2-amino-N-((1r,4r)-4-(3-aminopropanamido)cyclohexyl)isonicotinamide] | 16.6 µM |  | 
COc1cc(C(=O)N[C@H]2CC[C@H](N)CC2)c2ccccc2n1 [compound 223, N-((1r,4r)-4-aminocyclohexyl)-2-methoxyquinoline-4-carboxamide] | > 100 µM |  | 
NCCC(=O)N[C@H]1CC[C@H](NC(=O)c2c[nH]cn2)CC1 [compound 537, N-((1r,4r)-4-(3-aminopropanamido)cyclohexyl)-1H-imidazole-4-carboxamide] |  |  | IC50 (Table 1A, average of n = 1 to n = 50, read-out: SMYD3 Biochem IC50): > 50 µM
Cc1nn(C(C)C(=O)N[C@H]2CC[C@H](NC(=O)CCN)CC2)c(C)c1Br (some centres unmarked) [compound 431, 3-amino-N-((1r,4r)-4-(2-(4-bromo-3,5-dimethyl-1H-pyrazol-1-yl)propanamido)cyclohexyl)propanamide] | > 100 µM |  | 
CC1(CNC(=O)c2ccc3c(c2)CC(=O)N3)CCNCC1 [compound 121, N-((4-methylpiperidin-4-yl)methyl)-2-oxoindoline-5-carboxamide] |  | 65.7 µM | 
N[C@H]1CC[C@H](NC(=O)c2ccc3c(c2)NC(=O)CN3)CC1 [compound 70, N-((1r,4r)-4-aminocyclohexyl)-3-oxo-1,2,3,4-tetrahydroquinoxaline-6-carboxamide] |  | 77.5 µM | 
N[C@H]1CC[C@H](NC(=O)c2ccc3c(c2)CCC(=O)N3)CC1 [compound 74, N-((1r,4r)-4-aminocyclohexyl)-2-oxo-1,2,3,4-tetrahydroquinoline-6-carboxamide] |  | 65.8 µM | 
Cc1nscc1C(=O)N[C@H]1CC[C@H](NC(=O)CCN)CC1 [compound 347, N-((1r,4r)-4-(3-aminopropanamido)cyclohexyl)-3-methylisothiazole-4-carboxamide] | > 100 µM |  | 
CC(NC(=O)c1cccc(N)n1)C1CCN(C(=O)[C@H](C)N)CC1 (stereo partly drawn) [compound 418, N-(1-(1-(L-alanyl)piperidin-4-yl)ethyl)-6-aminopicolinamide] | > 100 µM |  | 
N[C@H]1CC[C@H](NC(=O)c2cn3ncccc3n2)CC1 [compound 447, N-((1r,4r)-4-aminocyclohexyl)imidazo[1,2-b]pyridazine-2-carboxamide] | > 100 µM |  | 
CC(NC(=O)c1ccc(O)nc1)C1CCN(C(=O)[C@H](C)N)CC1 (stereo partly drawn) [compound 378, N-(1-(1-(L-alanyl)piperidin-4-yl)ethyl)-6-hydroxynicotinamide] | > 100 µM |  | 
CCn1cnc(C(=O)N[C@H]2CC[C@H](N)CC2)c1 [compound 15, N-((1r,4r)-4-aminocyclohexyl)-1-ethyl-1H-imidazole-4-carboxamide] |  | 56.6 µM | 
NCCC(=O)N[C@H]1CC[C@H](NC(=O)c2cc(O)nc3ccccc23)CC1 [compound 200, N-((1r,4r)-4-(3-aminopropanamido)cyclohexyl)-2-hydroxyquinoline-4-carboxamide] | 23.3 µM |  | 
NCCC(=O)N[C@H]1CC[C@H](NC(=O)Cc2c[nH]c3cccnc23)CC1 [compound 407, N-((1r,4r)-4-(2-(1H-pyrrolo[3,2-b]pyridin-3-yl)acetamido)cyclohexyl)-3-aminopropanamide] | > 100 µM |  | 
Cc1nc2ccccc2c(C(=O)N[C@H]2CC[C@H](NC(=O)CCN)CC2)c1N [compound 478, 3-amino-N-((1r,4r)-4-(3-aminopropanamido)cyclohexyl)-2-methylquinoline-4-carboxamide] | 31.6 µM |  | 
N[C@H]1CC[C@H](NC(=O)c2ccc3[nH]c(=O)oc3c2)CC1 [compound 90, N-((1r,4r)-4-aminocyclohexyl)-2-oxo-2,3-dihydrobenzo[d]oxazole-6-carboxamide] |  | 9.76 µM | 
Cc1ncc(C(=O)NC(C)C2CCN(C(=O)[C@H](C)N)CC2)cn1 (stereo partly drawn) [compound 183, N-(1-(1-(L-alanyl)piperidin-4-yl)ethyl)-2-methylpyrimidine-5-carboxamide] | > 100 µM |  | 
NCCC(=O)N[C@H]1CC[C@H](NC(=O)c2cnc3ccccc3n2)CC1 [compound 373, N-((1r,4r)-4-(3-aminopropanamido)cyclohexyl)quinoxaline-2-carboxamide] | > 100 µM |  | 
Cc1nc(-c2ccc(C(=O)N[C@H]3CC[C@H](N)CC3)cc2)no1 [compound 137, N-((1r,4r)-4-aminocyclohexyl)-4-(5-methyl-1,2,4-oxadiazol-3-yl)benzamide] |  | 46.6 µM | 

Second part, led by results:

IC50 (read-out: SMYD3 Biochem IC50) | IC50 [1] | Compound | also measured
 | > 100 µM | CC(NC(=O)c1ccncc1)C1CCN(C(=O)[C@H](C)N)CC1 (stereo partly drawn) [compound 138, N-(1-(1-(L-alanyl)piperidin-4-yl)ethyl)isonicotinamide] | 
> 100 µM |  | Cc1c(C(=O)NC(C)C2CCN(C(=O)[C@H](C)N)CC2)nnn1-c1ccccc1 (stereo partly drawn) [compound 217, N-(1-(1-(L-alanyl)piperidin-4-yl)ethyl)-5-methyl-1-phenyl-1H-1,2,3-triazole-4-carboxamide] | 
 | > 100 µM | CC(=O)Nc1ccc(S(=O)(=O)N2CCC(NC(=O)c3cc[nH]n3)CC2)cc1 [compound 6, N-(1-((4-acetamidophenyl)sulfonyl)piperidin-4-yl)-1H-pyrazole-3-carboxamide] | 
 | 10.7 µM | C[C@@H](N)C(=O)N1CC[C@@H](CNC(=O)c2ccc3c(c2)CC(=O)N3)C1 [compound 133, N-(((S)-1-(D-alanyl)pyrrolidin-3-yl)methyl)-2-oxoindoline-5-carboxamide] | 
 | 82.8 µM | Cc1cc2[nH]c(C(=O)NC(c3ccccc3)C3CCNCC3)cc2o1 (centres unmarked) [compound 110, 2-methyl-N-(phenyl(piperidin-4-yl)methyl)-4H-furo[3,2-b]pyrrole-5-carboxamide] | 
 | > 100 µM | CC(=O)Nc1ccc(S(=O)(=O)N2CCC(NC(=O)c3ccnn3C)CC2)cc1 [compound 7, N-(1-((4-acetamidophenyl)sulfonyl)piperidin-4-yl)-1-methyl-1H-pyrazole-5-carboxamide] | 
> 100 µM |  | CC(NC(=O)c1ccc2cnccc2c1)C1CCN(C(=O)[C@H](C)N)CC1 (stereo partly drawn) [compound 194, N-(1-(1-(L-alanyl)piperidin-4-yl)ethyl)isoquinoline-6-carboxamide] | 
70.7 µM |  | CC(NC(=O)Cc1cc(F)cc(F)c1)C1CCN(C(=O)[C@H](C)N)CC1 (stereo partly drawn) [compound 313, N-(1-(1-(L-alanyl)piperidin-4-yl)ethyl)-2-(3,5-difluorophenyl)acetamide] | 
 | 122 µM | CCCCC1CC1C(=O)N[C@H]1CC[C@H](N)CC1 (some centres unmarked) [compound 53, N-((1r,4r)-4-aminocyclohexyl)-2-butylcyclopropane-1-carboxamide] | 
 | 38.9 µM | CN(C)Cc1ccc(C(=O)N[C@H]2CC[C@H](N)CC2)o1 [compound 79, N-((1r,4r)-4-aminocyclohexyl)-5-((dimethylamino)methyl)furan-2-carboxamide] | 
> 100 µM |  | Cn1nc(C(C)(C)C)cc1C(=O)N[C@H]1CC[C@H](N)CC1 [compound 352, N-((1r,4r)-4-aminocyclohexyl)-3-(tert-butyl)-1-methyl-1H-pyrazole-5-carboxamide] | 
 | > 100 µM | NCCC(=O)N[C@H]1CC[C@H](NC(=O)c2cccnc2)CC1 [compound 142, N-((1r,4r)-4-(3-aminopropanamido)cyclohexyl)nicotinamide] | 
5.02 µM |  | NCCC(=O)N[C@H]1CC[C@H](NC(=O)c2cc3cccc(O)c3cc2O)CC1 [compound 479, N-((1r,4r)-4-(3-aminopropanamido)cyclohexyl)-3,5-dihydroxy-2-naphthamide] | 
> 100 µM |  | N[C@H]1CC[C@H](NC(=O)c2cncs2)CC1 [compound 359, N-((1r,4r)-4-aminocyclohexyl)thiazole-5-carboxamide] | 
 | 115 µM | N[C@H]1CC[C@H](NC(=O)c2ccc3nc(O)ccc3c2)CC1 [compound 76, N-((1r,4r)-4-aminocyclohexyl)-2-hydroxyquinoline-6-carboxamide] | 
 | > 100 µM | N[C@H]1CC[C@H](NC(=O)Cc2cccnc2)CC1 [compound 129, N-((1r,4r)-4-aminocyclohexyl)-2-(pyridin-3-yl)acetamide] | 
7.49 µM |  | NCCC(=O)N[C@H]1CC[C@H](NC(=O)c2ccc3c(c2)OC(F)(F)O3)CC1 [compound 330, N-((1r,4r)-4-(3-aminopropanamido)cyclohexyl)-2,2-difluorobenzo[d][1,3]dioxole-5-carboxamide] | 
 | > 100 µM | NCCC(=O)N[C@H]1CC[C@H](NC(=O)c2ccc3ccccc3n2)CC1 [compound 163, N-((1r,4r)-4-(3-aminopropanamido)cyclohexyl)quinoline-2-carboxamide] | 
 | 86 µM | N[C@H]1CC[C@H](NC(=O)c2cccc(CO)c2)CC1 [compound 26, N-((1r,4r)-4-aminocyclohexyl)-3-(hydroxymethyl)benzamide] | 
12.3 µM |  | CC(NC(=O)c1ccc2cc[nH]c2c1)C1CCN(C(=O)[C@H](C)N)CC1 (stereo partly drawn) [compound 368, N-(1-(1-(L-alanyl)piperidin-4-yl)ethyl)-1H-indole-6-carboxamide] | 
48 µM |  | N[C@H]1CC[C@H](NC(=O)c2ccc(N3CCCC3)cc2)CC1 [compound 280, N-((1r,4r)-4-aminocyclohexyl)-4-(pyrrolidin-1-yl)benzamide] | 
> 100 µM |  | N[C@H]1CC[C@H](NC(=O)c2cnccn2)CC1 [compound 298, N-((1r,4r)-4-aminocyclohexyl)pyrazine-2-carboxamide] | 
> 100 µM |  | NCCC(=O)N[C@H]1CC[C@H](NC(=O)c2cc(=O)c3ccccc3o2)CC1 [compound 327, N-((1r,4r)-4-(3-aminopropanamido)cyclohexyl)-4-oxo-4H-chromene-2-carboxamide] | 
> 100 µM |  | CC(NC(=O)c1ccc(-c2ccccc2)cc1)C1CCN(C(=O)[C@H](C)N)CC1 (stereo partly drawn) [compound 189, N-(1-(1-(L-alanyl)piperidin-4-yl)ethyl)-[1,1′-biphenyl]-4-carboxamide] | 
37 µM |  | CC1=NN(c2ccc(C(=O)N[C@H]3CC[C@H](NC(=O)CCN)CC3)cc2)C(=O)C1 [compound 432, N-((1r,4r)-4-(3-aminopropanamido)cyclohexyl)-4-(3-methyl-5-oxo-4,5-dihydro-1H-pyrazol-1-yl)benzamide] | 
